Source: US8932807B2, “High throughput in vitro translation (cell-lysate based) assay for detecting quorum sensing signals” (University of South Carolina, priority 2007, dated 2015)

Legend:
Format in all cases: biochemical, Agrobacterium tumefaciens NTL4 (pCF218)(pCF372)
receptor protein TraR [1] = target: T1, receptor protein TraR (Agrobacterium tumefaciens, UniProt P33905); test: cell-free lysate absorbance assay (X-Gal, 635 nm) for detection of AHLs; settings: for minimum concentration of AHL resulting in an induction ratio greater than 3, Absorbance assay: cell-free lysate, X-Gal, absorbance 635 nm, means±SD (n=3)
T1 construct: expressed in transfected cells; host or cells: Agrobacterium tumefaciens NTL4 (pCF218)(pCF372); crude cell-free lysate (supernatant of sonicated cells)
T1 sequence (P33905 whole entry): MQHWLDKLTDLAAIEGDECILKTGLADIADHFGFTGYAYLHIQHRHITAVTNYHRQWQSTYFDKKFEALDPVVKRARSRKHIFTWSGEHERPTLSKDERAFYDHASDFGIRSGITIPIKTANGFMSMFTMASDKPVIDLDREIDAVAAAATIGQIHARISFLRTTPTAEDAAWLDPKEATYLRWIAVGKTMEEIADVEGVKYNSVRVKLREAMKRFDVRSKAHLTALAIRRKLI
Description: Absorbance Assay • 1) A culture of A. tumefaciens NTL4 (pCF218)(pCF372) was grown in 250 ml of AT minimal glucose media plus streptomycin (50 μg/ml) and tetracycline (5 μg/ml) at 30° C. with shaking for 18 hrs. • 2) The resulting cell culture was centrifuged at 10,000 rpm for 10 min. to collect cell pellets. • 3) The collected cell pellets were sonicated in 8 ml of 0.1 M KH2PO4 (pH 7.0) buffer to produce a homogenate. • 4) The sonicated homogenate was centrifuged at 50,000 rpm for 30 min. and the supernatant solution was collected. • 5) The supernatant solution was stored at −20° C. until the experiment. • 6) 50 μl of a sample solution containing AHLs was added to the wells of a 96-well plate. • 7) 50 μl of the collected supernatant solution from step (5), along with 100 μl of 20 mM KH2PO4, was added and mixed to each sample, and each sample was incubated at 30° for 2 h. • 8) 1 μl of X-Gal (20 mg/ml) was added and mixed into each well, and each sample was incubated at 30° C. for 1 h. • 9) The absorbance of each well was read at 635 nm.
(§1) Preparation of cell-free lysate. One liter of the reporter strain was grown in AT minimum glucose media (30° C. with shaking for 18 h) to early exponential-phase and then harvested by centrifugation (12,000×g; 10 min). Cell pellets were collected and resuspended in 5 ml of KH2PO4 buffer (100 mM; pH 7.4), then sonicated for 30 sec. three times and centrifuged (12,000×g) at 4° C. for 30 min to remove particulate cell fragments. The supernatant was collected as the ‘cell-free lysate (CFL)’ reagent, and was stored (−80° C.) until use.
Confirmation of β-galactosidase expression in vitro cell-free solution. To confirm β-galactosidase expression in cell-free solution, the following simple absorbance assay for AHLs was used. The protocol involved: 1) addition of 50 μl of sample solution containing AHLs into a 96-well plate; 2) addition of 50 μl of cell-free extract and 100 μl of 20 mM KH2PO4 (pH 7.0) into each well, followed by mixing and incubation at 30° C. for 2 h; 3) addition of 1 μl of X-Gal (20 mg/ml) into each well, then mixing and incubation at 30° C. for 1 h; and 4) measurement of absorbance in each well at 635 nm by spectrophotometer (Shimadzu UV-2401 PC UV-VIS, Shimadzu Corp.). To determine the detection limits, 1:1 serial dilutions of each AHL in 20 mM KH2PO4 (pH 7.0) buffer were performed in triplicate. Induction of β-galactosidase activity was calculated by dividing the absorbance of samples by those of controls. An induction ratio greater than 3 was considered active.

receptor protein TraR [2] = target: T1, receptor protein TraR; test: cell-free lysate luminescence assay (Beta-Glo) for detection of AHLs; settings: for minimum concentration of AHL resulting in an induction ratio greater than 3, Luminescence assay: cell-free lysate, Beta-Glo, 30° 2 h + 1 h, means±SD (n=3); for level that can be detected, luminescence assay / minimum detection limit, luminescence assay: summary statement; for detection of the AHL by the cell-free assay: comparison of absorbance and luminescence assays
Description: From step 5) • 6) 50 μl of sample solution containing AHLs was added in 96-well plate. • 7) 50 μl of assay reagent diluted in 20 mM KH2PO4 was added into each well, mix and incubate at 30° for 2 h. • 8) 100 μl of an appropriate luminescent substrate (e.g. β-Glo, Promega) was added into each well, mix and incubate and incubate at 30° C. for 1 h. • 9) luminescence was read by microplate luminometer (e.g. Veritas Turner BioSystems). This experiment is discussed in greater detail below.
as §1
Comparison of absorbance and luminescence assays. To improve the sensitivity of the cell-free approach, a luminescence assay was developed for AHLs. The protocol involved: 1) addition of 50 μl of sample solution containing AHLs into a 96-well plate; 2) addition of 50 μl of cell-free extract, diluted in 20 mM KH2PO4 buffer (pH 7.0) resulting in a protein concentration of 80 μg/ml for each well, and then mixed and incubated at 30° for 2 h; 3) addition of 100 μl of β-Glo® (Promega) into each well, followed by mixing and incubation (30° C. for 1 h); and 4) measurement of luminescence using a Veritus Microplate Luminometer (Turner BioSystems). For control wells, 20 mM KH2PO4 (pH 7.0) buffer was used. To determine the detection limit, a 1:1 serial dilution of each AHL was performed in triplicate using 20 mM KH2PO4 (pH 7.0) buffer. Then, absorbance assays were conducted. Induction of β-galactosidase activity was calculated by dividing the sample absorbance or luminescence with that of controls. An induction ratio greater than 3 was considered active (27).

[3] = test system: binding of AHL/TraR complex to β-galactosidase promoter; test: inhibition of Reactions 2) and 3) of the cell-free assay by streptomycin; settings: 1 μM C8-AHL, 30 min pre-incubation, absorbance, FIG. 5C
Description: Inhibition of Reactions 2) and 3). […] First, 50 μl aliquots of 1 μM C8-AHL solution was added to each tube, followed by addition of cell-free extract. Further, a series of increasing concentrations of streptomycin (i.e. 0, 50, 125, 250, 300 μg) were added to the cell-free extract and incubated for 30 min. prior to the assay (4, 22, 29). Then, β-galactosidase expression was measured by absorbance.

| SMILES | minimum concentration of AHL resulting in an induction ratio greater than 3, Absorbance assay (receptor protein TraR [1]) | minimum concentration of AHL resulting in an induction ratio greater than 3, Luminescence assay (receptor protein TraR [2]) | level that can be detected, luminescence assay (receptor protein TraR [2]) | minimum detection limit, luminescence assay (receptor protein TraR [2]) | other results |
| --- | --- | --- | --- | --- | --- |
| CCCCCC(=O)NC1CCOC1=O (stereo not drawn) [C6-AHL, N-hexanoyl-homoserine lactone] | 335 ± 10 nM | 30 ± 3 nM | low μM level |  |  |
| CCCCCC(=O)CC(=O)NC1CCOC1=O (stereo not drawn) [oxo-C8-AHL, N-3-oxo-octanoyl-homoserine lactone] | 120 ± 10 nM | 10 ± 3 nM |  |  |  |
| [H]/N=C(/N)N[C@H]1[C@H](O)[C@@H](O)[C@H](O[C@@H]2O[C@@H](C)[C@](O)(C=O)[C@H]2O[C@@H]2O[C@@H](CO)[C@H](O)[C@@H](O)[C@@H]2NC)[C@@H](N/C(N)=N\[H])[C@@H]1O [streptomycin] |  |  |  |  | streptomycin additions that reduced assay activities [3]: above 125 μg/ml |
| CCCCCCCCCC(=O)N[C@H]1CCOC1=O [C10-AHL, N-decanoyl-homoserine lactone] | 1300 ± 20 nM | 100 ± 5 nM | low μM level |  |  |
| CCCCCCCCCCCC(=O)NC1CCOC1=O (stereo not drawn) [C12-AHL, N-dodecanoyl-homoserine lactone] | 2400 ± 30 nM | 200 ± 6 nM | low μM level |  |  |
| CCCCCCCCCCCCCC(=O)N[C@H]1CCOC1=O [C14-AHL, N-tetradecanoyl-homoserine lactones] |  |  |  |  | detection of the AHL by the cell-free assay (receptor protein TraR [2]): not able to detect |
| CCCCCCC(=O)N[C@H]1CCOC1=O [C7-AHL, N-heptanoyl-homoserine lactone] | 245 ± 8 nM | 25 ± 5 nM |  | approximately 10 nM |  |
| CCCC(=O)CC(=O)N[C@H]1CCOC1=O [oxo-C6-AHL, N-3-oxo-hexanoyl-homoserine lactone] | 180 ± 25 nM | 17 ± 2 nM |  | approximately 10 nM |  |
| CCCCCCCC(=O)NC1CCOC1=O (stereo not drawn) [C8-AHL, N-octanoyl-homoserine lactone] | 225 ± 11 nM | 20 ± 2 nM |  | approximately 10 nM | absorbance changes (635 nm) proportional to concentration, up to (receptor protein TraR [1]; dose-response of β-galactosidase expression, FIG. 6): up to 2 μM |
| CCCC(=O)N[C@H]1CCOC1=O [C4-AHL, N-butanoyl-homoserine lactone] |  |  |  |  | detection of the AHL by the cell-free assay (receptor protein TraR [2]): not able to detect |
